Experiments:
[1] = biological target: T1, PAF binding to dog platelets (Canis lupus familiaris, UniProt A0A8I3NSH0); assay: PAF Radioreceptor Binding Assay (PAF Binding); settings: inhibition of 3H-PAF binding to dog platelets, 10 min, room temperature
T1 construct: from tissue; host or cells: washed platelets from citrate-treated dog blood
T1 sequence (A0A8I3NSH0 1-343): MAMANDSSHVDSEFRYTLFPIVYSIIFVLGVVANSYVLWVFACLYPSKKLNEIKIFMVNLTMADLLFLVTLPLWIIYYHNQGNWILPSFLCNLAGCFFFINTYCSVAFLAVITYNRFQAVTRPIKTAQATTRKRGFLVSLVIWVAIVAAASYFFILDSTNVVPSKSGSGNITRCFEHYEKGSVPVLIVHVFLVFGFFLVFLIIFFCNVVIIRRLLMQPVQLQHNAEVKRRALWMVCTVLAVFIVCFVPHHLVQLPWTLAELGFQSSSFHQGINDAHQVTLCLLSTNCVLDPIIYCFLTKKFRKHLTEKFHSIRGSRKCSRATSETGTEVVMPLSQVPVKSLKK
Procedure: (1) PAF Radioreceptor Binding Assay (PAF Binding)
Platelet rich plasma is prepared by centrifugation of citrate-treated dog blood. Acidification to pH 6.5 with 0.15M citric acid and centrifugation for 10 minutes at 1000×g yields a platelet pellet which is then washed by resuspension in EDTA-Phosphate Buffered Saline (PBS) and recentrifuged. The washed platelet preparation is adjusted to 2×10^7 platelets/50 μl in 0.1% bovine serum albumin-PBS.
To a 400 μl microfuge tube containing 50 μl silicone oil (specific gravity 1.023) is added buffer, PAF standard or analog, or an extract to bring the aqueous volume to 150 μl. 50 μl of ^3 H-PAF (10,000 cpm, 45 Ci/mM) is added followed by 2×10^7 dog platelets. After mixing, incubating for 10 minutes at room temperature, and centrifuging for 1 minute in a Beckman Microfuge B (8000×g), the pellet is removed by clipping off the tip of the tube, the platelets are solubilized with 200 μl of 50% methanol and counted in 10 ml of Aquasol. […] Results obtained with representative copounds of the present invention in this assay are summarized hereinafter in Tables I and II. IC50 is drug concentration (μMolar) which inhibits PAF binding to dog platelets by 50%.

[2] = biological target: T2, TXA2 synthase (Homo sapiens, UniProt P24557); assay: Thromboxane Synthase Inhibition, In Vitro (TXA2 Synth. Inhib.); assay type: biochemical; settings: human platelet microsomes, 10 μM 14C-PGH2, 22° C., 2 min
T2 construct: using microsomal fractions from human platelets as enzyme source; from tissue; host or cells: microsomal fractions from human platelets
T2 sequence (P24557 1-533): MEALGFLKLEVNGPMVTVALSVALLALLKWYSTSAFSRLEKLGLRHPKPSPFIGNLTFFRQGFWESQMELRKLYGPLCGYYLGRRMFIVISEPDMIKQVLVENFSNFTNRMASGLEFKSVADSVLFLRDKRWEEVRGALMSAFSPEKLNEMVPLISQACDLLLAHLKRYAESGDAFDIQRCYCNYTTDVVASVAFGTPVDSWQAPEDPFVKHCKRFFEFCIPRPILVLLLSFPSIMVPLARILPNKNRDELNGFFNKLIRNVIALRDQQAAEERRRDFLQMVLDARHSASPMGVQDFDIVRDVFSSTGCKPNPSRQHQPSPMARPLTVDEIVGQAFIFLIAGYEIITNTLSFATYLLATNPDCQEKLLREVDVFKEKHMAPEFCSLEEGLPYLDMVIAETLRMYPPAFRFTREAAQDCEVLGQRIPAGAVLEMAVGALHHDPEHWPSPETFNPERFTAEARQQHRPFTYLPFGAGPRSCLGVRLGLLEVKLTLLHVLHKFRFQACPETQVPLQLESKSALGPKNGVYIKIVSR
Procedure: (2) Thromboxane Synthase Inhibition, In Vitro (TXA2 Synth. Inhib.)
TXA2 synthase activity is measured by following the conversion of ^14 C-prostaglandin endoperoxide (PGH2) to ^14 C-thromboxane A2 (TXA2) using microsomal fractions from human platelets as enzyme source. In the aqueous incubation medium, the TXA2 decomposes rapidly into TXB2. The amount of TXA2 synthase is adjusted so that under the conditions of the assay approximately 80-90% of the substrate, PGH2, is converted to product in control tubes. To prepare ^14 C-PGH2, ^14 C-AA (50-60 mCi/mmole; Rose Chem.) is incubated with sheep seminal vesicular gland microsomes for 1.5 minutes at 37° C. and then the ^14 C-PGH2 is extracted with diethylether, purified on columns oof Sephadex LH-20 or silicic acid, and stored in acetone at -70° C. Incubations are done as follows. Sufficient ^14 C-PGH2 to yield a final substrate concentration of 10 μM (30,000 cpm) is added to the incubation tubes and then the acetone is removed under nitrogen. The tubes are placed in an ice bath and then 215 μl of ice cold phosphate buffered saline, 10 μl of ethanol (control) or of test drug in ethanol, and 25 μl of the microsomal suspension are added with mixing in that order as rapidly as possible. The tubes are incubated at 22° C. for 2 minutes, the reaction is stopped and then the radioactive products and the unconverted PGH2 are extracted and analyzed by thin layer chromatography. […] The amount of ^14 C-PGH2 converted to products was used as a measure of TXA2 synthase activity. Inhibitors were tested initially at a final concentration 100 μM. Results obtained with representative compounds of the present invention in this assay are summarized hereafter in Tables I and II. IC50 is the drug concentration (μMolar) which inhibits TXA2 activity by 50%.

[3] = test system: PAF; assay: Inhibition of PAF Induced Guinea Pig Bronchoconstriction Test (Inhib. of PAF Broncho.); assay type: in vivo, guinea pig (Hartley strain); settings: Cavia porcellus, iv; 1 mg/kg i.v. (1 min. pretreat)
Procedure: (3) Inhibition of PAF Induced Guinea Pig Bronchoconstriction Test (Inhib. of PAF Broncho.)
Male guinea pigs (Hartley strain) weighing 300 to 500 g are anesthetized with urethane (2 g/kg) intraperitoneally and a polyethylene cannula is inserted into the jugular vein for drug administration. Tracheal pressure is recorded from a cannula inserted in the trachea and connected to a Statham pressure transducer. Propranolol (0.1 mg/kg) is administered intravenously five minutes before challenge with synthetic PAF, the animal's skeletal muscles are then paralyzed with succinylcholine (1.2 mg/kg i.v.), and the animal is respirated using a Harvard small animal respirator operating at 40 breaths/min and 2.5 cc stroke volume. Under these conditions PAF induces a dose-dependent increase in ventilatory pressure over a dose range of 0.5 to 5 μg/kg i.v. For screening purposes animals are challenged with a single dose of PAF (10 μg/kg i.v.).
The peak increase in ventilatory pressure (cm H2 O) is recorded for three control animals and five drug-treated animals and the percent inhibition determined from the following formula [formula] Results obtained with representative compounds of the invention in this test are summarized hereinafter in Tables I and II.

[4] = test system: PAF; assay: Inhibition of PAF-Induced Platelet Aggregation (Inhib. of PAF Platelet Reduction); assay type: in vivo, guinea pig; settings: Cavia porcellus, iv, 3 mg/kg i.v.
Procedure: (5) Inhibition of PAF-Induced Platelet Aggregation (Inhib. of PAF Platelet Reduction)
Guinea pigs (anesthetized) are set up to withdraw blood for platelet counting. The animal is allowed to stabilize after completion of surgical procedures. The carotid catheter is allowed to bleed back blood and then is filled, prior to each sample withdrawal with sodium citrate 3.8% (0.15 ml). Blood (0.25 ml) is withdrawn 30 seconds prior to the PAF challenge and at 15, 30 and 60 seconds after the PAF challenge. This first PAF challenge is used as the control, assuming sufficient decreases in platelet count are observed. The amount of PAF used will be approximately 50 ng/kg, however, this can be increased to achieve the desired decreases in platelet count. Fifteen minutes after the control PAF challenge, intravenous drug dosing begins, with animals being dosed at 30 minute intervals; PAF challenge follows 15 minutes after each intravenous dose. Three intravenous drug doses are used in each experiment. Initial drug doses are 1, 3 and 10 mg/kg i.v. Inhibition of PAF platelet reduction at 3 mg/kg i.v. for representative compounds of the invention are summarized hereinafter in Tables I and II. Percent inhibition is [formula]

IC50 [1] [nM]	IC50 [2] [nM]	SMILES	inhibition in vivo at 1 mg/kg [3] [%]	inhibition in vivo at 3 mg/kg [4] [%]
200	1000	CCCc1c(OCc2cccc(-c3nnnn3CCCc3cccnc3)c2)ccc(C(C)=O)c1O [1-[2-hydroxy-3-propyl-4-[[3-[1-[3-(3-pyridinyl)propyl]-1H-tetrazol-5-yl]phenyl]methoxy]phenyl]ethanone]		
25		CCCc1c(O)c(C(C)=O)cc(Cl)c1OCc1cccc(-c2nnnn2CCCc2cccnc2)c1 [1-[5-chloro-2-hydroxy-3-propyl-4-[[3-[1-[3-(3-pyridinyl)propyl]-1H-tetrazol-5-yl]phenyl]methoxy]phenyl]ethanone]	43 ± 21	25
> 1000		CCCc1c(OCCCc2nnn(CCCc3cccnc3)n2)ccc(C(C)=O)c1O [3 3 3-pyridyl, 1-[2-hydroxy-3-propyl-4-[3-[2-[3-(3-pyridinyl)propyl]-2H-tetrazol-5-yl]propoxy]phenyl]ethanone]	13 ± 7	
1000		CCCc1c(OCCCc2nnn(CCCCc3cccnc3)n2)ccc(C(C)=O)c1O [3 4 3-pyridyl, 1-[2-Hydroxy-3-propyl-4-[3-[2-[4-(3-pyridinyl)butyl]-2H-tetrazol-5-yl]propoxy]phenyl]ethanone]	38 ± 14	
> 1000		CCCc1c(OCCCCCc2nnn(Cc3cccnc3)n2)ccc(C(C)=O)c1O [5 1 3-pyridyl]		
> 1000	100 to 1000	CCCc1c(OCCCCCc2nnn(CCCc3cccnc3)n2)ccc(C(C)=O)c1O [5 3 3-pyridyl, 1-[2-Hydroxy-3-propyl-4-[5-[2-[3-(3-pyridinyl)propyl]-2H-tetrazol-5-yl]pentyloxy]phenyl]ethanone]	38 ± 11	
480	100 to 1000	CCCc1c(OCCCCCc2nnn(CCCCc3cccnc3)n2)ccc(C(C)=O)c1O [5 4 3-pyridyl, 1-[2-Hydroxy-3-propyl-4-[5-[2-[4-(3-pyridinyl)butyl]-2H-tetrazol-5-yl]pentyloxy]phenyl]ethanone]	94 ± 6	
140	1000	CCCc1c(O)c(C(C)=O)cc(Cl)c1OCCCCCc1nnnn1CCCCc1cccnc1 [Cl H 5 4 3-pyridyl, 1-[5-chloro-2-hydroxy-3-propyl-4-[5-[1-[4-(3-pyridinyl)butyl]-1H-tetrazol-5-yl]pentyloxy]phenyl]ethanone]		7
250	10 to 100	CCCc1c(OCCCc2nnnn2CCCc2cccnc2)ccc(C(C)=O)c1O [H H 3 3 3-pyridyl, 1-[2-Hydroxy-3-propyl-4-[3-[1-[3-(3-pyridinyl)propyl]-1H-tetrazol-5-yl]propoxy]phenyl]ethanone]	53 ± 17	
800		CCCc1c(OCCCCCc2nnnn2Cc2cccnc2)ccc(C(C)=O)c1O [H H 5 1 3-pyridyl, 1-[2-Hydroxy-3-propyl-4-[5-[1-(3-pyridinyl)methyl-1H-tetrazol-5-yl]-pentyloxy]phenyl]ethanone]		

SMILES	IC50 [1] [nM]	IC50 [2] [nM]	inhibition in vivo at 1 mg/kg [3] [%]	inhibition in vivo at 3 mg/kg [4] [%]
CCCc1c(OCCCCc2nnn(CCc3cccnc3)n2)ccc(C(C)=O)c1O [4 2 3-pyridyl, 1-[2-Hydroxy-3-propyl-4-[4-[2-[2-(3-pyridinyl)ethyl]-2H-tetrazol-5-yl]butoxy]phenyl]ethanone]	> 1000			
CCCc1c(OCCCCc2nnn(CCCn3ccnc3)n2)ccc(C(C)=O)c1O [4 3 1-imidazolyl, 1-[2-Hydroxy-3-propyl-4-[4-[2-[3-(1H-imidazol-1-yl)propyl]-2H-tetrazol-5-yl]butoxy]phenyl]-ethanone]	> 1000		30 ± 15	
CCCc1c(OCCCCc2nnn(CCCc3cccnc3)n2)ccc(C(C)=O)c1O [4 3 3-pyridyl, 1-[2-Hydroxy-3-propyl-4-[4-[2-[3-(3-pyridinyl)propyl]-2H-tetrazol-5-yl]butoxy]phenyl]ethanone]	> 1000		55 ± 9	
CCCc1c(OCCCCCc2nnnn2CCCc2cccnc2)ccc(C(C)=O)c1OC(C)=O [H Ac 5 3 3-pyridyl, 1-[2-Acetoxy-3-propyl-4-[5-[1-[3-(3-pyridinyl)propyl]-1H-tetrazol-5-yl]pentyloxy]phenyl]ethanone]	180	100 to 1000	84.8 ± 11	31
CCCc1c(OCCCCc2nnnn2CCc2cccnc2)ccc(C(C)=O)c1O [H H 4 2 3-pyridyl, 1-[2-Hydroxy-3-propyl-4-[4-[1-[2-(3-pyridinyl)ethyl]-1H-tetrazol-5-yl]butoxy]phenyl]ethanone]	1000		-15 ± 6	48

Reference: US4663332A, “5-substituted N-alkylated tetrazoles” (Hoffman-La Roche Inc., priority 1985, dated 1987)
